{"source": "ChEMBL document CHEMBL4411260", "about": "“Dual Inhibition of TYK2 and JAK1 for the Treatment of Autoimmune Diseases: Discovery of (( S)-2,2-Difluorocyclopropyl)((1 R,5 S)-3-(2-((1-methyl-1 H-pyrazol-4-yl)amino)pyrimidin-4-yl)-3,8-diazabicyclo[3.2.1]octan-8-yl)methanone (PF-06700841)” (J Med Chem, 2018)", "key": {"[1]": {"experiment": "Thermodynamic equilibrium solubility of the compound at pH 7.64 phosphate buffer saline by UPLC analysis", "format": "physicochemical", "details": "read-out: Therm_solubility"}, "[2]": {"experiment": "Drug metabolism in human liver microsomes assessed as oxidation of N-methy pyrazole", "format": "ADME, Microsome"}, "[3]": {"experiment": "Drug metabolism in monkey liver microsomes assessed as CYP3A4-mediated metabolism", "format": "ADME, Macaca mulatta", "details": "rhesus monkey"}, "[4]": {"experiment": "Fraction unbound in human plasma", "format": "ADME, cell-free"}, "[5]": {"experiment": "Drug metabolism in rat liver microsomes assessed as oxidation of N-methy pyrazole", "format": "ADME, Microsome"}, "[6]": {"experiment": "Drug metabolism in human liver microsomes assessed as N-dealkylation", "format": "ADME, Microsome"}, "[7]": {"experiment": "Drug metabolism in rat liver microsomes assessed as CYP3A4-mediated metabolism", "format": "ADME"}, "[8]": {"experiment": "Fraction unbound in rat plasma", "format": "ADME, cell-free"}, "Cytochrome P450 3A4": {"molecular_target": "Cytochrome P450 3A4 (Homo sapiens, UniProt P08684)", "sequence (P08684 whole entry)": "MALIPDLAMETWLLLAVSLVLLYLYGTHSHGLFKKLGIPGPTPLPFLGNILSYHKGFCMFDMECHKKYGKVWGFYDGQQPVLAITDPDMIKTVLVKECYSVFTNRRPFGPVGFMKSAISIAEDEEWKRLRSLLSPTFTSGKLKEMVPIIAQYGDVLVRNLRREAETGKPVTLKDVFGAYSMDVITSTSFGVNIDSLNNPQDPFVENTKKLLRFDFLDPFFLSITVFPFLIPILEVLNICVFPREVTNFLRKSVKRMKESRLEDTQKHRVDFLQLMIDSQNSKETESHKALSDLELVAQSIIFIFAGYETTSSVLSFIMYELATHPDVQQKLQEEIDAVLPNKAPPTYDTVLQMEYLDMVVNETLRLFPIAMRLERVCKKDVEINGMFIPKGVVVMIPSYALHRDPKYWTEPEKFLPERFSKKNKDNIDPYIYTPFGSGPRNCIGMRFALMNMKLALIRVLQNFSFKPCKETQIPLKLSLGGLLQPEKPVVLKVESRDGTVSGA", "experiment": "Drug metabolism in human liver microsomes assessed as CYP3A4-mediated metabolism", "format": "ADME"}, "[9]": {"experiment": "Solubility of compound in fasted state simulated intestinal fluid", "format": "physicochemical"}, "[10]": {"experiment": "Drug metabolism in rat liver microsomes assessed as N-demethylation", "format": "ADME, Microsome"}, "[11]": {"experiment": "Drug metabolism in monkey liver microsomes assessed as oxidative metabolite formation", "format": "ADME, Macaca mulatta, Microsome", "details": "rhesus monkey"}, "[12]": {"experiment": "Drug metabolism in human liver microsomes assessed as N-demethylation", "format": "ADME, Microsome"}, "[13]": {"experiment": "Drug metabolism in monkey liver microsomes assessed as N-dealkylation", "format": "ADME, Macaca mulatta, Microsome", "details": "rhesus monkey"}, "[14]": {"experiment": "Passive apparent permeability from apical to basolateral side in RRCK cells", "format": "ADME, cell-based, Canis lupus familiaris, MDCKII-LE", "details": "dog, MDCK"}, "physchem": {"experiment": "physchem", "details": "octanol/water phosphate buffer, pH 7.4"}, "[15]": {"experiment": "Drug metabolism in human liver microsomes assessed as oxidative metabolite formation", "format": "ADME, Microsome"}, "[16]": {"experiment": "Drug metabolism in rat liver microsomes assessed as oxidative metabolite formation", "format": "ADME, Microsome"}, "[17]": {"experiment": "Drug metabolism in rat liver microsomes assessed as N-dealkylation", "format": "ADME, Microsome"}, "[18]": {"experiment": "Unbound intrinsic clearance in human hepatocytes assessed as per million cells", "format": "ADME, cell-based, Hepatocyte"}, "[19]": {"molecular_target": "T1, Vascular endothelial growth factor receptor 2 (Homo sapiens, UniProt P35968)", "T1 sequence (P35968 whole entry)": "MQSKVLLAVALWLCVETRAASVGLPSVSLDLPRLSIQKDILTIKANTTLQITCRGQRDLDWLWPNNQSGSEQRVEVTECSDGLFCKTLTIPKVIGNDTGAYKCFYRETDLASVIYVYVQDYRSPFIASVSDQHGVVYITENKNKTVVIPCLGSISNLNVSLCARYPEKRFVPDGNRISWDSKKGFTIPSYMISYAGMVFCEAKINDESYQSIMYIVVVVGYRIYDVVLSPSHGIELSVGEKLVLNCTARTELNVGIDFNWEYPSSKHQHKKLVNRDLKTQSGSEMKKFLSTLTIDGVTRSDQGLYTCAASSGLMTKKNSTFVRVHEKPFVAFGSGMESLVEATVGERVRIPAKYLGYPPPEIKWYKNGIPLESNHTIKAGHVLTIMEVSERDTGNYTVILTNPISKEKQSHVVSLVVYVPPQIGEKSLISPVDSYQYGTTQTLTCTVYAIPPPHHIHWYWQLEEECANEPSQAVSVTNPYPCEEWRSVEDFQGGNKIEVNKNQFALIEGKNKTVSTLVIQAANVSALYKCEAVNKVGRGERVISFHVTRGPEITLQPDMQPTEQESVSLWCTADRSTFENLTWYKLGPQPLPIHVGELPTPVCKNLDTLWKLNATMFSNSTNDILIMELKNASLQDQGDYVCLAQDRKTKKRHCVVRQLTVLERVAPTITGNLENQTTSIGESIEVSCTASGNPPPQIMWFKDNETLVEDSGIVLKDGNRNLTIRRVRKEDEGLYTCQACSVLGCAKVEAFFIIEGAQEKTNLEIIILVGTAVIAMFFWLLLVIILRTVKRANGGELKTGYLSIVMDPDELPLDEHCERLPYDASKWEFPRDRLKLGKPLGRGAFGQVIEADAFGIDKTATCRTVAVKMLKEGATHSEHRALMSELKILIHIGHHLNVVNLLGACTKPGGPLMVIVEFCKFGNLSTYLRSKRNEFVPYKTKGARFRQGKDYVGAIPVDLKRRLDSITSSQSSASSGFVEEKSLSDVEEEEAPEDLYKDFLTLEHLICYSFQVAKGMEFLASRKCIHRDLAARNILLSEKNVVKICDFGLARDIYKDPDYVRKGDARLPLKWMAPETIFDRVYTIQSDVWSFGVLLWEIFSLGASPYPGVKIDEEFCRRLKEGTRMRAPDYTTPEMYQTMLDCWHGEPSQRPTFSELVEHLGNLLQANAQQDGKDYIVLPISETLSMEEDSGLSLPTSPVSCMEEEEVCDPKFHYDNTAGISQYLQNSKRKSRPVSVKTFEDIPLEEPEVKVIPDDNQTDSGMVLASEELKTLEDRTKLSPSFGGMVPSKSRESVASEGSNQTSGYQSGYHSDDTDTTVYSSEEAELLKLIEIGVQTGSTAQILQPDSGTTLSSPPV", "experiment": "Inhibition of recombinant human VEGFR2 using Ulight-CAGAGAIETDKEYYTVKD as substrate after 60 mins"}, "[20]": {"experiment": "Unbound intrinsic clearance in human liver microsomes assessed as per mg protein", "format": "ADME, Microsome"}, "[21]": {"experiment": "Drug metabolism in monkey liver microsomes assessed as oxidation of N-methy pyrazole", "format": "ADME, Macaca mulatta, Microsome", "details": "rhesus monkey"}, "[22]": {"experiment": "Drug metabolism in monkey liver microsomes assessed as N-demethylation", "format": "ADME, Macaca mulatta, Microsome", "details": "rhesus monkey"}, "[23]": {"molecular_target": "T1, Vascular endothelial growth factor receptor 2", "experiment": "Inhibition of VEGFR2 (unknown origin) by cell based assay"}, "[24]": {"experiment": "Solubility of compound in fed state simulated intestinal fluid", "format": "physicochemical"}}, "note": "pIC50: −log10 of the molar value."}
{"smiles": "Cn1cc(Nc2nccc(N3CC4CC[C@H](C3)N4C(=O)[C@@H]3CC3(F)F)n2)cn1", "note": "(single isomer, unassigned)", "values": [{"measurement": "solubility thermodynamic", "setting": "[1]", "value": 4840, "unit": "µg/mL"}, {"measurement": "Drug metabolism", "setting": "[2]", "value": "Metabolite_Detected"}, {"measurement": "Drug metabolism", "setting": "[3]", "value": "Metabolite_Detected"}, {"measurement": "fraction unbound", "setting": "[4]", "value": 0.61}, {"measurement": "Drug metabolism", "setting": "[5]", "value": "Metabolite_Detected"}, {"measurement": "Drug metabolism", "setting": "[6]", "value": "Metabolite_Detected"}, {"measurement": "Drug metabolism", "setting": "[7]", "value": "Metabolite_Detected"}, {"measurement": "fraction unbound", "setting": "[8]", "value": 0.69}, {"measurement": "Drug metabolism", "setting": "Cytochrome P450 3A4", "value": "Metabolite_Detected"}, {"measurement": "solubility", "setting": "[9]", "value": "> 7000", "unit": "µg/mL"}, {"measurement": "Drug metabolism", "setting": "[10]", "value": "Metabolite_Detected"}, {"measurement": "Drug metabolism", "setting": "[11]", "value": "Metabolite_Detected"}, {"measurement": "Drug metabolism", "setting": "[12]", "value": "Metabolite_Detected"}, {"measurement": "Drug metabolism", "setting": "[13]", "value": "Metabolite_Detected"}, {"measurement": "Papp A→B", "setting": "[14]", "value": 18.8, "unit": "×10⁻⁶ cm/s"}, {"measurement": "logD", "setting": "physchem", "value": 1.61}, {"measurement": "Drug metabolism", "setting": "[15]", "value": "Metabolite_Detected"}, {"measurement": "Drug metabolism", "setting": "[16]", "value": "Metabolite_Detected"}, {"measurement": "Drug metabolism", "setting": "[17]", "value": "Metabolite_Detected"}, {"measurement": "CL free", "setting": "[18]", "value": "< 0.6", "unit": "µL/min"}, {"measurement": "pIC50", "setting": "[19]", "value": 5.80}, {"measurement": "CL free", "setting": "[20]", "value": "< 10", "unit": "µL/min"}, {"measurement": "Drug metabolism", "setting": "[21]", "value": "Metabolite_Detected"}, {"measurement": "Drug metabolism", "setting": "[22]", "value": "Metabolite_Detected"}, {"measurement": "pIC50", "setting": "[23]", "value": "< 4.52"}, {"measurement": "solubility", "setting": "[24]", "value": "> 7000", "unit": "µg/mL"}]}
